What all share (type): cell-based, Human
One data set deals with RH-30 cells. Briefly: in vitro. As to conditions: 6 μM PMO-FITC, increasing shuttle concentrations, 2 minutes. The method, then:
(§1) Although naked DNA/RNA cargoes are shown to themselves be poor cargoes of synthetic peptide shuttle agents (Examples 3 and 9), the present Example evaluates their potential dominant negative effect in trans on shuttle agent-mediated transduction of PMO cargoes. Briefly, RH-30 cells (150,000 cells/well in 24-well dish) were contacted with a delivery mix of 6 μM of a PMO-FITC and of 5 μM of the synthetic peptide shuttle agent FSD250 for 2 minutes in RPMI, in the presence of increasing amounts of a DNA oligonucleotide or an sgRNA spiked in medium. Cells were then washed, incubated in growth medium and then collected for analysis by flow cytometry after 1 h. […] In all conditions tested, cell viability remained above 75%.
(§2) The present Example compares the PMO transduction activity of a prototypical CPD-comprising first generation shuttle agent with that of two rationally-designed second generation synthetic peptide shuttle agents. Briefly, RH-30 cells (20,000 cells/well in 96-well dish) were contacted with a delivery mix of 6 μM of a PMO-FITC and increasing concentrations of the first-generation shuttle agent His-CM18-PTD4 or two CPD-lacking second generation synthetic peptide shuttle agents (FSD250 and FSD10) for 2 minutes in RPMI. Cells were washed, incubated in complete medium and then collected for analysis by flow cytometry after 1 h. […]

Data set [1] deals with HeLa cells. In words: PMO-FITC delivery in HeLa cells, immunofluorescence microscopy (vs Endoporter). The following applies: 10 μM PMO-FITC with shuttle agent, 5-minute incubation in RPMI. As for the experimental part: A PMO cargo delivery experiment in HeLa cells was performed to directly compare synthetic peptide shuttle agent-mediated PMO transduction with Endoporter-mediated intracellular PMO delivery. For shuttle agent-mediated transduction, HeLa cells were exposed to 10 μM of PMO-FITC in the presence of 2.5, 5, 7.5, or 10 μM of the second-generation shuttle agent FSD396 for 5 minutes in RPMI. For Endoporter-mediated delivery, HeLa cells were exposed to 10 μM of PMO-FITC in the presence of 2.5, 5, 7.5, or 10 μM of the commercially-available Endoporter' peptide (GeneTools, LLC) in growth medium for the manufacturer's recommended minimum incubation time of at least 24 hours. After a washing step, delivery results were compared by observing intracellular PMO-FITC fluorescence via immunofluorescence microscopy and results are shown in FIG. 11.

In data set [2] the test system is HeLa cells. Briefly: Propidium iodide (PI) transduction screening in HeLa cells. As to conditions: negative control peptide tested in parallel; data not shown. The method, then:
HeLa cells were plated (20 000 cells/well) in a 96 well-dish the day prior to the experiment. Each delivery mix comprising a synthetic peptide shuttle agent (10 μM) and the propidium iodide (PI) (10 μg/mL) or the GFP-NLS (10 μM) were prepared and completed to 50 μL with phosphate-buffered saline (PBS) for PI or with RPMI-1640 medium for GFP-NLS. Cells were washed once and the shuttle agent/PI or shuttle agent/GFP-NLS added on cells for one minute (PI) or 5 minutes (GFP-NLS). Then 100 μL DMEM containing 10% FBS was added to the mix and removed. Cells were washed once with PBS and incubated in DMEM containing 10% FBS. Cells were analyzed after 2-hour incubation by flow cytometry. Cells were analyzed […]. […]
Due to the large number of peptides screened, negative controls were performed in parallel for each experimental batch and included a “no treatment” (NT) control in which the cells were not exposed to shuttle peptide or cargo, as well as a “cargo alone” control in which cells were exposed to the cargo in the absence of shuttle agent. […] Mean PI or GFP-NLS delivery score was calculated by multiplying the mean fluorescence intensity (of at least duplicate samples) measured for the viable PI+ or GFP+ cells by the mean percentage of viable PI+ or GFP+ cells, divided by 100,000 for GFP delivery or by 10,000 for PI delivery. […]

A short description of a further data set: in vitro. The following applies: human, RH-30 cells. As for the experimental part:
as §1, §2

Data set [3] concerns HeLa cells. Briefly: PMO, PNA and siRNA transduction in HeLa cells with FSD250. As to conditions: all conditions tested, FIG. 7B. The method, then: Phosphorodiamidate morpholino oligomers labeled with the fluorophore FITC (PMO-FITC) were prepared at 1 mM in sterile water. HeLa cells were plated (20 000 cells/well) in a 96 well-dish the day prior to the experiment. Each delivery mix comprising a synthetic peptide shuttle agent (7.5, 10 or 20 μM) and a PMO-FITC (6 μM) was prepared and completed to 50 μL with RPMI-1640 media. Cells were washed once with PBS and the shuttle agent/PMO-FITC or PMO-FITC alone added on cells for five minutes. Then, 100 μL DMEM containing 10% FBS was added to the mix and removed. Cells were washed once with PBS and incubated in DMEM containing 10% FBS. Cells were analyzed after a 2-hour incubation by flow cytometry.
HeLa cells were transduced with 10 μM of PMO-FITC or fluorescently-labeled Peptide Nucleic Acid (PNA) (PNA TelC-Alexa 488; cat. no. F1004; PNA BIO Inc.) as generally described in the transduction protocol described in Example 1 with a few modifications. The shuttle peptide used was FSD250 (5 μM) and cells were contacted with the cargo and shuttle agent for two minutes, and cells were analyzed after a 1-hour incubation by flow cytometry.

In another data set the test system is Gli1 protein. In words: Gli1 knock-down in DU145 cells, Western blot. As to conditions: FITC+ cells vs FITC− cells; 6 μM PMO, 5 μM FSD250, 48 hours. As for the experimental part: DU145 cells were trypsinized and plated (500 000 cells/well) in a 24 well-dish the day prior to the experiment. […] Cells were washed once with PBS and delivery mixes were added on cells for five minutes. Then, 2 mL of RPMI-1640 containing 10% FBS was added to the mix and removed. Untreated cells were incubated with RPMI-1640 only. Cells were incubated in fresh RPMI-1640 containing 10% FBS. Forty height hours later, medium was removed and cells were washed once with PBS prior to trypsinization. Cells were harvested, collected by centrifugation, washed, and resuspended with PBS. Then, PMO-FITC positive and PMO-FITC negative cells were sorted and collected by virtue of FACS (BD FACS Aria Fusion). FITC-positive and FITC-negative cell samples were collected by centrifugation and resuspended in 50 μL protein extraction RIPA buffer (150 mM NaCl, 1% Nonidet™ P-40, 0.1% SDS, 0.5% Sodium deoxycholate, 25 mM Tris). Total protein concentrations were measured with a BCA protein assay kit. For all conditions, 10 μg of proteins were prepared at a final volume of 40 μL with 4× Laemmeli and RIPA buffer. Protein samples were then heated at 90° C. and separated through an 8% SDS-PAGE gel. Proteins were then transferred over night (25 volts) onto a […] PVDF membrane. Membranes were blocked using a 5% bovine serum albumin, Tris Buffer Saline, 0.1% Tween® 20 solution (5% BSA/TBS-T) for an hour. After blocking, the membrane was incubated for an hour with a 5% BSA/TBS-T solution containing anti alpha-Actinin (D6F6) primary antibody at a 1:1000. Alpha-Actinin protein present in the cell lysates served as loading control. Subsequently, the membranes were incubated over night with a 5% BSA/TBS-T solution containing anti-Gli1 primary antibody diluted 1:500. The membrane was then subjected to a 1-hour incubation at 1:5000 dilution of HRP-conjugated goat anti-rabbit secondary antibody 5% BSA/TBS-T solution. Chemiluminescence detection was performed using Clarity™ Western ECL Substrate and a ChemiDoc™ XRS apparatus. Gli1 and Alpha-Actinin densitometry was assessed using ImageJ™ software. […]

Where a SMILES comes first, the peptide text is derived from it.

With “FSD10: CPD-lacking second generation synthetic peptide shuttle agent (KWKLARAFARAIKKLGGSGGGSYARALRRQARTG; FSD10)”, the “PMO-FITC transduction efficiency compared to His-CM18-PTD4” value in the data set on RH-30 cells was “higher transduction efficiencies”.

As for “FSD396: second-generation shuttle agent (KLKLAKLLLKALKKLGGSGGGSQAKAQAKQAK; FSD396)”, in the data set on HeLa cells [1], the “intracellular delivery of PMO-FITC” value is “robust intracellular delivery”.

Take “FSD174 Scramble: negative control peptide known to have low or no GFP transduction activity (LGRSGRIKIGGWSALASRARQARGLKIWTQGRL; FSD174 Scramble)”: in the data set with HeLa cells [2], the “PI transduction efficiency compared to cargo alone” value is “lower transduction efficiencies for PI”.

In general, viability refers to the share of living cells, or the viability signal relative to a control. Lower therefore signals a greater loss of cells. `CC(C)C[C@H](NC(=O)[C@H](CCCCN)NC(=O)[C@H](CC(C)C)NC(=O)[C@H](CC(C)C)NC(=O)[C@H](CCCNC(=N)N)NC(=O)[C@H](CO)NC(=O)[C@H](Cc1c[nH]c2ccccc12)NC(=O)[C@H](CC(C)C)NC(=O)[C@H](CCCCN)NC(=O)[C@H](CC(C)C)NC(=O)[C@H](CC(C)C)NC(=O)[C@H](CCCCN)NC(=O)[C@H](Cc1c[nH]c2ccccc12)NC(=O)[C@@H](N)CCCCN)C(=O)N[C@@H](Cc1c[nH]c2ccccc12)C(=O)NCC(=O)NCC(=O)N[C@@H](CO)C(=O)NCC(=O)NCC(=O)NCC(=O)N[C@@H](CO)C(=O)N[C@@H](C)C(=O)N[C@@H](CCCNC(=N)N)C(=O)N[C@@H](C)C(=O)N[C@@H](C)C(=O)N[C@@H](CCCNC(=N)N)C(=O)N[C@@H](CCC(N)=O)C(=O)N[C@@H](C)C(=O)N[C@@H](CCCNC(=N)N)C(=O)O` [FSD250] (H-KWKLLKLWSRLLKLWGGSGGGSARAARQAR-OH) had a viability at 2 min, 5 µM in the data set “in vitro” above 75%. The Cell viability result in the data set with HeLa cells [3] is listed as “remained high”.

Regarding “PMO-Wnt1: antisense PMO molecule designed to knock-down expression of the Wnt1 protein (antisense GCAACAGCGCCCAGAGCCCCATG; all phosphorodiamidate morpholino (PMO))”, the Gli1 protein expression result with Gli1 protein is given as “knocked-down”.
